In patent US20230085307A1, “PYRIDAZINONE COMPOUND AND HERBICIDE” (NISSAN CHEMICAL CORPORATION, priority 2019, published 2023):

Tests used:
velvetleaf [1] = assay: Test Example 5: herbicidal effect by foliage application, plastic box (Table 20, symbol M); type: in vivo, velvetleaf (Abutilon theophrasti); settings: foliage application
Summary of the method: (§1)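 Plants were sown into sterilized diluvial soil under about 1.5 cm cover and kept in a greenhouse at 25° C. to 30° C. Fourteen days on, foliage received an even spray of the diluted emulsion. Herbicidal or crop effect was judged three weeks afterwards.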

green foxtail [2] = assay: Test Example 5: herbicidal effect by foliage application, plastic box (Table 20, symbol G); type: in vivo, green foxtail (Setaria viridis); settings: foliage application
Summary of the method: as §1

persian speedwell [3] = assay: Test Example 5: herbicidal effect by foliage application, plastic box (Table 20, symbol R); type: in vivo, Persian speedwell (Veronica persica); settings: foliage application
Summary of the method: as §1

barnyard grass [4] = assay: Test Example 3: herbicidal effect by foliage application, Wagner pot (Table 18, symbol H); type: in vivo, barnyard grass (Echinochloa crus-galli)
Summary of the method: (§2)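 Plants were sown in alluvial soil held under 0.1–0.5 cm standing water and grown 14 days in a greenhouse at 25–30 °C. An emulsifiable formulation, water-diluted to the set dose, was then sprayed onto the foliage, and effects were scored three weeks later using previously defined criteria.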

barnyard grass [5] = assay: Test Example 4: herbicidal effect by soil treatment (Table 19, symbol H); type: in vivo, barnyard grass (Echinochloa crus-galli)
Summary of the method: (§3)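 Pre-emergence style soil spray: seeds under ~1.5 cm sterilized diluvial soil received a uniform coat of emulsion diluted to the predetermined herbicide amount. Greenhouse 25–30° C; readout at week three on previously defined criteria.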

redroot pigweed [6] = assay: Test Example 5: herbicidal effect by foliage application, plastic box (Table 20, symbol N); type: in vivo, redroot pigweed (Amaranthus retroflexus); settings: foliage application
Summary of the method: as §1

barnyard grass [7] = assay: Test Example 5: herbicidal effect by foliage application, plastic box (Table 20, symbol H); type: in vivo, barnyard grass (Echinochloa crus-galli); settings: foliage application
Summary of the method: as §1

southern crabgrass [8] = assay: Test Example 4: herbicidal effect by soil treatment (Table 19, symbol F); type: in vivo, southern crabgrass (Digitaria ciliaris)
Summary of the method: as §3

velvetleaf [9] = assay: Test Example 4: herbicidal effect by soil treatment (Table 19, symbol M); type: in vivo, velvetleaf (Abutilon theophrasti)
Summary of the method: as §3

rice flat sedge = assay: Test Example 3: herbicidal effect by foliage application, Wagner pot (Table 18, symbol E); type: in vivo, rice flat sedge (Cyperus iria)
Summary of the method: as §2

persian speedwell [10] = assay: Test Example 4: herbicidal effect by soil treatment (Table 19, symbol R); type: in vivo, Persian speedwell (Veronica persica)
Summary of the method: as §3

Italian ryegrass [11] = assay: Test Example 5: herbicidal effect by foliage application, plastic box (Table 20, symbol K); type: in vivo, Italian ryegrass (Lolium multiflorum); settings: foliage application
Summary of the method: as §1

chickweed [12] = assay: Test Example 4: herbicidal effect by soil treatment (Table 19, symbol P); type: in vivo, common chickweed (Stellaria media)
Summary of the method: as §3

blackgrass [13] = assay: Test Example 4: herbicidal effect by soil treatment (Table 19, symbol J); type: in vivo, blackgrass (Alopecurus myosuroides)
Summary of the method: as §3

redroot pigweed [14] = assay: Test Example 4: herbicidal effect by soil treatment (Table 19, symbol N); type: in vivo, redroot pigweed (Amaranthus retroflexus)
Summary of the method: as §3

wild oat [15] = assay: Test Example 5: herbicidal effect by foliage application, plastic box (Table 20, symbol I); type: in vivo, wild oat (Avena fatua); settings: foliage application
Summary of the method: as §1

Italian ryegrass [16] = assay: Test Example 4: herbicidal effect by soil treatment (Table 19, symbol K); type: in vivo, Italian ryegrass (Lolium multiflorum)
Summary of the method: as §3

southern crabgrass [17] = assay: Test Example 5: herbicidal effect by foliage application, plastic box (Table 20, symbol F); type: in vivo, southern crabgrass (Digitaria ciliaris); settings: foliage application
Summary of the method: as §1

chickweed [18] = assay: Test Example 5: herbicidal effect by foliage application, plastic box (Table 20, symbol P); type: in vivo, common chickweed (Stellaria media); settings: foliage application
Summary of the method: as §1

windgrass [19] = assay: Test Example 4: herbicidal effect by soil treatment (Table 19, symbol L); type: in vivo, windgrass (Apera spica-venti)
Summary of the method: as §3

late watergrass = assay: Test Example 1: herbicidal activity, application before weed generation under submerged conditions (Table 16, symbol A); type: in vivo, late watergrass (Echinochloa oryzicola)
Summary of the method: (§4)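 Submerged Wagner pots (alluvial soil, 4 cm water) sown with weed seeds and planted with 2.5-leaf rice seedlings; emulsifiable concentrate diluted in water applied to water surface on sowing day. Held in greenhouse at 25-30 °C; injury scored 0-5 by herbicidal rate after three weeks.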

Chinese sprangletop = assay: Test Example 3: herbicidal effect by foliage application, Wagner pot (Table 18, symbol D); type: in vivo, chinese sprangletop (Leptochloa chinensis)
Summary of the method: as §2

windgrass [20] = assay: Test Example 5: herbicidal effect by foliage application, plastic box (Table 20, symbol L); type: in vivo, windgrass (Apera spica-venti); settings: foliage application
Summary of the method: as §1

lambsquarters [21] = assay: Test Example 4: herbicidal effect by soil treatment (Table 19, symbol O); type: in vivo, lambsquarters (Chenopodium album)
Summary of the method: as §3

lambsquarters [22] = assay: Test Example 5: herbicidal effect by foliage application, plastic box (Table 20, symbol O); type: in vivo, lambsquarters (Chenopodium album); settings: foliage application
Summary of the method: as §1

Japanese bulrush = assay: Test Example 1: herbicidal activity, application before weed generation under submerged conditions (Table 16, symbol B); type: in vivo, Japanese bulrush (Schoenoplectus juncoides)
Summary of the method: as §4

green foxtail [23] = assay: Test Example 4: herbicidal effect by soil treatment (Table 19, symbol G); type: in vivo, green foxtail (Setaria viridis)
Summary of the method: as §3

blackgrass [24] = assay: Test Example 5: herbicidal effect by foliage application, plastic box (Table 20, symbol J); type: in vivo, blackgrass (Alopecurus myosuroides); settings: foliage application
Summary of the method: as §1

oval-leafed pondweed = assay: Test Example 1: herbicidal activity, application before weed generation under submerged conditions (Table 16, symbol C); type: in vivo, oval-leafed pondweed (Monochoria vaginalis)
Summary of the method: as §4

wild oat [25] = assay: Test Example 4: herbicidal effect by soil treatment (Table 19, symbol I); type: in vivo, wild oat (Avena fatua)
Summary of the method: as §3

[26] = 272 g/ha, three weeks after application
[27] = amount of applied herbicide 272 g/ha
[28] = 320 g/ha, evaluated three weeks after application
[29] = amount of applied herbicide 320 g/ha

Structure (SMILES): COc1cc(F)ccc1-c1sc2ccccc2c1-c1c(O)c(C)nn(C)c1=O [1-055]
- herbicidal effect grade, M: velvetleaf (velvetleaf [1]; [26]): 3 (Herbicidal rate of 40% or more and less than 70%)
- herbicidal effect grade, G: green foxtail (green foxtail [2]; [26]): 4 (Herbicidal rate of 70% or more and less than 90%)
- herbicidal effect grade, R: persian speedwell (persian speedwell [3]; [26]): 4 (Herbicidal rate of 70% or more and less than 90%)
- herbicidal effect on H (barnyard grass), rating 0-5 (barnyard grass [4]; 272 g/ha): 5 (Herbicidal rate of 90% or more (almost completely withered))
- herbicidal effect rating, H: barnyard grass (barnyard grass [5]; [27]): 4 (Herbicidal rate of 70% or more and less than 90%)
- herbicidal effect grade, N: redroot pigweed (redroot pigweed [6]; [26]): 3 (Herbicidal rate of 40% or more and less than 70%)
- herbicidal effect grade, H: barnyard grass (barnyard grass [7]; [26]): 4 (Herbicidal rate of 70% or more and less than 90%)
- herbicidal effect rating, F: southern crabgrass (southern crabgrass [8]; [27]): 2 (Herbicidal rate of 20% or more and less than 40%)
- herbicidal effect rating, M: velvetleaf (velvetleaf [9]; [27]): 0 (Herbicidal rate of 5% or less (almost no effect))
- herbicidal effect on E (rice flat sedge), rating 0-5 (rice flat sedge; 272 g/ha): 5 (Herbicidal rate of 90% or more (almost completely withered))
- herbicidal effect rating, R: persian speedwell (persian speedwell [10]; [27]): 5 (Herbicidal rate of 90% or more (almost completely withered))
- herbicidal effect grade, K: Italian ryegrass (Italian ryegrass [11]; [26]): 4 (Herbicidal rate of 70% or more and less than 90%)
- herbicidal effect rating, P: chickweed (chickweed [12]; [27]): 5 (Herbicidal rate of 90% or more (almost completely withered))
- herbicidal effect rating, J: blackgrass (blackgrass [13]; [27]): 3 (Herbicidal rate of 40% or more and less than 70%)
- herbicidal effect rating, N: redroot pigweed (redroot pigweed [14]; [27]): 5 (Herbicidal rate of 90% or more (almost completely withered))
- herbicidal effect grade, I: wild oat (wild oat [15]; [26]): 5 (Herbicidal rate of 90% or more (almost completely withered))
- herbicidal effect rating, K: Italian ryegrass (Italian ryegrass [16]; [27]): 3 (Herbicidal rate of 40% or more and less than 70%)
- herbicidal effect grade, F: southern crabgrass (southern crabgrass [17]; [26]): 4 (Herbicidal rate of 70% or more and less than 90%)
- herbicidal effect grade, P: chickweed (chickweed [18]; [26]): 5 (Herbicidal rate of 90% or more (almost completely withered))
- herbicidal effect rating, L: windgrass (windgrass [19]; [27]): 3 (Herbicidal rate of 40% or more and less than 70%)
- Herbicidal effect on A: late watergrass (grade 0-5) (late watergrass; 272 g/ha applied herbicide): 4 (Herbicidal rate of 70% or more and less than 90%)
- herbicidal effect on D (Chinese sprangletop), rating 0-5 (Chinese sprangletop; 272 g/ha): 2 (Herbicidal rate of 20% or more and less than 40%)
- herbicidal effect grade, L: windgrass (windgrass [20]; [26]): 5 (Herbicidal rate of 90% or more (almost completely withered))
- herbicidal effect rating, O: lambsquarters (lambsquarters [21]; [27]): 4 (Herbicidal rate of 70% or more and less than 90%)
- herbicidal effect grade, O: lambsquarters (lambsquarters [22]; [26]): 2 (Herbicidal rate of 20% or more and less than 40%)
- Herbicidal effect on B: Japanese bulrush (grade 0-5) (Japanese bulrush; 272 g/ha applied herbicide): 0 (Herbicidal rate of 5% or less (almost no effect))
- herbicidal effect rating, G: green foxtail (green foxtail [23]; [27]): 5 (Herbicidal rate of 90% or more (almost completely withered))
- herbicidal effect grade, J: blackgrass (blackgrass [24]; [26]): 5 (Herbicidal rate of 90% or more (almost completely withered))
- Herbicidal effect on C: oval-leafed pondweed (grade 0-5) (oval-leafed pondweed; 272 g/ha applied herbicide): 0 (Herbicidal rate of 5% or less (almost no effect))
- herbicidal effect rating, I: wild oat (wild oat [25]; [27]): 3 (Herbicidal rate of 40% or more and less than 70%)

Structure (SMILES): Cc1nn(C)c(=O)c(-c2c(-c3cccc(F)c3)sc3ccc(F)cc23)c1O [2-201]
- herbicidal effect on M: velvetleaf (criteria 0-5) (velvetleaf [1]; [28]): 5 (Herbicidal rate of 90% or more (almost completely withered))
- herbicidal effect on G: green foxtail (criteria 0-5) (green foxtail [2]; [28]): 4 (Herbicidal rate of 70% or more and less than 90%)
- herbicidal effect on R: persian speedwell (criteria 0-5) (persian speedwell [3]; [28]): 5 (Herbicidal rate of 90% or more (almost completely withered))
- herbicidal effect on H: barnyard grass (barnyard grass [4]; [29]): 5 (Herbicidal rate of 90% or more (almost completely withered))
- H: barnyard grass, herbicidal effect rating (barnyard grass [5]; [29]): 4 (Herbicidal rate of 70% or more and less than 90%)
- herbicidal effect on N: redroot pigweed (criteria 0-5) (redroot pigweed [6]; [28]): 5 (Herbicidal rate of 90% or more (almost completely withered))
- herbicidal effect on H: barnyard grass (criteria 0-5) (barnyard grass [7]; [28]): 5 (Herbicidal rate of 90% or more (almost completely withered))
- F: southern crabgrass, herbicidal effect rating (southern crabgrass [8]; [29]): 3 (Herbicidal rate of 40% or more and less than 70%)
- M: velvetleaf, herbicidal effect rating (velvetleaf [9]; [29]): 4 (Herbicidal rate of 70% or more and less than 90%)
- herbicidal effect on E: rice flat sedge (rice flat sedge; [29]): 5 (Herbicidal rate of 90% or more (almost completely withered))
- R: persian speedwell, herbicidal effect rating (persian speedwell [10]; [29]): 0 (Herbicidal rate of 5% or less (almost no effect))
- herbicidal effect on K: Italian ryegrass (criteria 0-5) (Italian ryegrass [11]; [28]): 4 (Herbicidal rate of 70% or more and less than 90%)
- P: chickweed, herbicidal effect rating (chickweed [12]; [29]): 3 (Herbicidal rate of 40% or more and less than 70%)
- J: blackgrass, herbicidal effect rating (blackgrass [13]; [29]): 0 (Herbicidal rate of 5% or less (almost no effect))
- N: redroot pigweed, herbicidal effect rating (redroot pigweed [14]; [29]): 5 (Herbicidal rate of 90% or more (almost completely withered))
- herbicidal effect on I: wild oat (criteria 0-5) (wild oat [15]; [28]): 0 (Herbicidal rate of 5% or less (almost no effect))
- K: Italian ryegrass, herbicidal effect rating (Italian ryegrass [16]; [29]): 2 (Herbicidal rate of 20% or more and less than 40%)
- herbicidal effect on F: southern crabgrass (criteria 0-5) (southern crabgrass [17]; [28]): 4 (Herbicidal rate of 70% or more and less than 90%)
- herbicidal effect on P: chickweed (criteria 0-5) (chickweed [18]; [28]): 5 (Herbicidal rate of 90% or more (almost completely withered))
- L: windgrass, herbicidal effect rating (windgrass [19]; [29]): 0 (Herbicidal rate of 5% or less (almost no effect))
- Herbicidal effect on A: late watergrass (grade 0-5) (late watergrass; 320 g/ha applied herbicide): 2 (Herbicidal rate of 20% or more and less than 40%)
- herbicidal effect on D: Chinese sprangletop (Chinese sprangletop; [29]): 4 (Herbicidal rate of 70% or more and less than 90%)
- herbicidal effect on L: windgrass (criteria 0-5) (windgrass [20]; [28]): 4 (Herbicidal rate of 70% or more and less than 90%)
- O: lambsquarters, herbicidal effect rating (lambsquarters [21]; [29]): 4 (Herbicidal rate of 70% or more and less than 90%)
- herbicidal effect on O: lambsquarters (criteria 0-5) (lambsquarters [22]; [28]): 5 (Herbicidal rate of 90% or more (almost completely withered))
- Herbicidal effect on B: Japanese bulrush (grade 0-5) (Japanese bulrush; 320 g/ha applied herbicide): 2 (Herbicidal rate of 20% or more and less than 40%)
- G: green foxtail, herbicidal effect rating (green foxtail [23]; [29]): 3 (Herbicidal rate of 40% or more and less than 70%)
- herbicidal effect on J: blackgrass (criteria 0-5) (blackgrass [24]; [28]): 0 (Herbicidal rate of 5% or less (almost no effect))
- Herbicidal effect on C: oval-leafed pondweed (grade 0-5) (oval-leafed pondweed; 320 g/ha applied herbicide): 0 (Herbicidal rate of 5% or less (almost no effect))
- I: wild oat, herbicidal effect rating (wild oat [25]; [29]): 0 (Herbicidal rate of 5% or less (almost no effect))
